# Assays:
# Format in all cases: in vivo
# [1] = test system: Echinochloa crus-galli (ECHCG); experiment: Post-emergence herbicidal action against Echinochloa crus-galli; settings: 1280 g/ha; rated visually after about 3 weeks vs untreated controls; 100% = plants have died, 0% = like control plants
# Procedure: (§1) Seeds of mono- and dicotyledonous weed plants were placed in plastic pots in sandy loam soil (doubly sown with in each case one species of mono- or dicotyledonous weed plants per pot), covered with soil and cultivated in a greenhouse under controlled growth conditions. 2 to 3 weeks after sowing, the test plants were treated at the one-leaf stage. The compounds of the invention, formulated in the form of wettable powders (WP) or as emulsion concentrates (EC), were applied onto the green parts of the plants as aqueous suspension or emulsion with addition of 0.5% additive at a water application rate of 600 liters per hectare (converted). After the test plants had been kept in the greenhouse under optimum growth conditions for about 3 weeks, the activity of the preparations was rated visually in comparison to untreated controls. For example, 100% activity=the plants have died, 0% activity=like control plants. Tables B1 to B8 below show the effects of selected compounds of the general formula (I) according to Table 1 on various harmful plants and an application rate corresponding to 1280 g/ha, which were obtained by the experimental procedure mentioned above.
# Setaria viridis (SETVI) = experiment: Pre-emergence herbicidal action against Setaria viridis; settings: 1280 g/ha; scored visually after about 3 weeks vs untreated controls; 100% = plants have died, 0% = like control plants
# Summary of the method: (§2)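 Pre-emergence, sandy loam pots: WP/EC formulation + 0.5% additive sprayed on covering soil, 600 L/ha water, 1280 g/ha. Greenhouse ~3 wk. Visual % effect vs untreated control; 0% = like control, 100% = plants dead.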
# [2] = test system: Amaranthus retroflexus (AMARE); experiment: Post-emergence herbicidal action against Amaranthus retroflexus; settings: 1280 g/ha; rated visually after about 3 weeks vs untreated controls; 100% = plants have died, 0% = like control plants
# Summary of the method: (§3)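 Weeds sown in sandy loam, grown in greenhouse and treated at one-leaf stage (2–3 weeks after sowing) with WP or EC formulations as aqueous spray plus 0.5% additive at 600 L/ha water. Application rate 1280 g/ha. Visual rating after about 3 weeks versus untreated controls (100% = plants dead, 0% = like control).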
# Stellaria media (STEME) [3] = experiment: Post-emergence herbicidal action against Stellaria media; settings: 1280 g/ha; rated visually after about 3 weeks vs untreated controls; 100% = plants have died, 0% = like control plants
# Summary of the method: as §3
# [4] = test system: Echinochloa crus-galli (ECHCG); experiment: Pre-emergence herbicidal action against Echinochloa crus-galli; settings: 1280 g/ha; scored visually after about 3 weeks vs untreated controls; 100% = plants have died, 0% = like control plants
# Summary of the method: as §2
# [5] = test system: Amaranthus retroflexus (AMARE); experiment: Pre-emergence herbicidal action against Amaranthus retroflexus; settings: 1280 g/ha; scored visually after about 3 weeks vs untreated controls; 100% = plants have died, 0% = like control plants
# Summary of the method: as §2
# Poa annua (POAAN) [6] = experiment: Pre-emergence herbicidal action against Poa annua; settings: 1280 g/ha; scored visually after about 3 weeks vs untreated controls; 100% = plants have died, 0% = like control plants
# Summary of the method: as §2
# Lolium rigidum (LOLRI) = experiment: Pre-emergence herbicidal action against Lolium rigidum; settings: 1280 g/ha; scored visually after about 3 weeks vs untreated controls; 100% = plants have died, 0% = like control plants
# Summary of the method: as §2
# [7] = test system: Abutilon theophrasti (ABUTH); experiment: Pre-emergence herbicidal action against Abutilon theophrasti; settings: 1280 g/ha; scored visually after about 3 weeks vs untreated controls; 100% = plants have died, 0% = like control plants
# Summary of the method: as §2
# [8] = test system: Matricaria inodora (MATIN); experiment: Post-emergence herbicidal action against Matricaria inodora; settings: 1280 g/ha; rated visually after about 3 weeks vs untreated controls; 100% = plants have died, 0% = like control plants; column head prints STEME
# Procedure: as §1
# Poa annua (POAAN) [9] = experiment: Post-emergence herbicidal action against Poa annua; settings: 1280 g/ha; rated visually after about 3 weeks vs untreated controls; 100% = plants have died, 0% = like control plants
# Summary of the method: as §3
# Stellaria media (STEME) [10] = experiment: Pre-emergence herbicidal action against Stellaria media; settings: 1280 g/ha; scored visually after about 3 weeks vs untreated controls; 100% = plants have died, 0% = like control plants
# Summary of the method: as §2
# [11] = test system: Matricaria inodora (MATIN); experiment: Pre-emergence herbicidal action against Matricaria inodora; settings: 1280 g/ha; scored visually after about 3 weeks vs untreated controls; 100% = plants have died, 0% = like control plants
# Summary of the method: as §2
# [12] = test system: Abutilon theophrasti (ABUTH); experiment: Post-emergence herbicidal action against Abutilon theophrasti; settings: 1280 g/ha; rated visually after about 3 weeks vs untreated controls; 100% = plants have died, 0% = like control plants
# Summary of the method: as §3
# Agrostis tenuis (AGSTE) = experiment: Early post-emergence herbicidal action against Agrostis tenuis; settings: 1900 g/ha; scored visually 9 to 12 days after treatment vs untreated controls; 100% = plants have died, 0% = like control plants
# Procedure: (§4) Seeds of monocotyledonous or dicotyledonous weed plants were placed in 96-well microtiter plates in quartz sand and grown in a climatized chamber under controlled growth conditions. 5 to 7 days after sowing, the test plants were treated at the cotyledon stage. The compounds according to the invention, formulated in the form of emulsion concentrates (EC), were applied with a water application rate of the equivalent of 2200 liters per hectare. After the test plants had been left to stand in the climatized chamber for 9 to 12 days under optimum growth conditions, the effect of the preparations was scored visually in comparison to untreated controls. For example, 100% activity=the plants have died, 0% activity=like control plants. Tables A1 to A2 below show the effects of selected compounds of the general formula (I) according to Table 1 on various harmful plants and an application rate corresponding to 1,900 g/ha, which were obtained by the experimental procedure mentioned above.
# Poa annua (POAAN) [13] = experiment: Early post-emergence herbicidal action against Poa annua; settings: 1900 g/ha; scored visually 9 to 12 days after treatment vs untreated controls; 100% = plants have died, 0% = like control plants
# Procedure: as §4
SMILES,Post-emergence action against Echinochloa crus-galli (ECHCG) [1] [%],Pre-emergence action against Setaria viridis (SETVI) (Setaria viridis (SETVI)) [%],Post-emergence action against Amaranthus retroflexus (AMARE) [2] [%],Post-emergence action against Stellaria media (STEME) (Stellaria media (STEME) [3]) [%],Pre-emergence action against Echinochloa crus-galli (ECHCG) [4] [%],Pre-emergence action against Amaranthus retroflexus (AMARE) [5] [%],Pre-emergence action against Poa annua (POAAN) (Poa annua (POAAN) [6]) [%],Pre-emergence action against Lolium rigidum (LOLRI) (Lolium rigidum (LOLRI)) [%],Pre-emergence action against Abutilon theophrasti (ABUTH) [7] [%],Post-emergence action against Matricaria inodora (MATIN) [8] [%],Post-emergence action against Poa annua (POAAN) (Poa annua (POAAN) [9]) [%],Pre-emergence action against Stellaria media (STEME) (Stellaria media (STEME) [10]) [%],Pre-emergence action against Matricaria inodora (MATIN) [11] [%],Post-emergence action against Abutilon theophrasti (ABUTH) [12] [%],Early post-emergence action against Agrostis tenuis (AGSTE) (Agrostis tenuis (AGSTE)) [%],Early post-emergence action against Poa annua (POAAN) (Poa annua (POAAN) [13]) [%]
Cc1cc(C)c(Cc2ccc(F)cc2)c(Oc2ncc(F)cn2)n1 [Example I-479],100,100,100,100,100,100,100,100,100,100,100,100,100,100,,
Cc1cc(C)c(Cc2ccc(F)cc2F)c(Oc2ncc(F)cn2)n1 [Example I-481],100,100,100,100,100,100,100,100,100,90,100,100,100,100,,
COc1cccc(Cc2c(C)cc(C)nc2Oc2ncc(F)cn2)c1 [Example I-484],100,100,100,100,100,100,100,100,100,100,100,100,100,100,,
COc1cc(Cc2c(C)cc(C)nc2Oc2ncc(F)cn2)ccc1F [Example I-487],100,100,100,100,100,100,100,100,100,100,100,100,100,100,,
Cc1cc(C)c(Oc2ncc(Cl)cc2F)c(Oc2ncc(F)cn2)n1 [Example I-591],,,,,,,,,,,,,,,100,100
Cc1cc(C)c(Oc2ncc(F)cn2)c(Oc2ncc(F)cn2)n1 [Example I-595],,,,,,,,,,,,,,,100,100

# Source: US11834434B2, “Substituted 2-heteroaryloxypyridines and salts thereof and their use as herbicidal agents” (Bayer Aktiengesellschaft, priority 2018, dated 2023)
